For 16 molecules, GI50 and TGI results are on record in PubChem BioAssay (NCI).

“And” between values parts separate entries of the source, which are not always exact repeats. Identical values can stand only once.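 Interpolation was linear, between the two tested concentrations surrounding the appropriate level; five concentrations were tested over 48 hours in 96-well plates. GI50: concentration for 50% inhibition of growth. TGI: concentration producing complete growth inhibition.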 Some results are limits rather than exact numbers.

In the first assay the test system is HS 578T breast. Briefly: NCI tumour cell line growth inhibition, 48 h.
Take `CCCN1C(=O)/C(=c2\sc3n(c2=O)C2C(NN=3)N(CC)C(=O)N2CC)c2ccccc21` (stereo not drawn): the GI50 is 0.386 µM and the TGI is over 39.8 µM.

For the molecule `c1ccc2[nH]c(-c3ccc(N4CCN(c5ccc(-c6nc7ccccc7[nH]6)cc5)CC4)cc3)nc2c1`, the GI50 was over 100 µM and the TGI was over 100 µM.

With `CC1(C)CCC2(C(=O)OC3OC(CO)C(O)C(O)C3O)CC[C@]3(C)C(=CCC4C5(C)CC[C@H](OC6OC(C(=O)O)C(O)C(O)C6O)C(C)(C)C5CCC43C)C2C1` (stereo partly drawn), the GI50 is 1.62 µM and the TGI is 4.51 µM.

Take `O=S(=O)(c1ccc(NC(=S)NCc2cccnc2)cc1)N1CCCCC1`: the GI50 was 8.65 µM and the TGI was over 100 µM.

`Fc1ccc2[nH]cc(Cc3c[nH]c4ccc(F)cc34)c2c1`: the GI50 was 18.5 µM and the TGI worked out at 44.5 µM.

Take `C=C1C(=O)O[C@@H]2C1CC(=O)C(C)CC/C=C(\C)CCC[C@H](C)[C@H]2OC(C)=O` (stereo partly drawn): the GI50 is 15.2 µM and the TGI was 36 µM.

Turning to `Cc1ccc(C(=O)Nc2ccc(S(=O)(=O)O)c3cc(S(=O)(=O)O)cc(S(=O)(=O)O)c23)cc1NC(=O)c1cccc(N)c1`, the TGI is over 100 µM.

The subject of the next assay is CCRF-CEM leukemia. Briefly: NCI tumour cell line growth inhibition, 48 h.
On to `O=c1cc(CNc2cc(F)cc(F)c2)c2ccc(I)cc2[nH]1`, for which the GI50 was 0.498 µM and the TGI is over 57.7 µM.

In the case of `CCCN(Cc1ccc(F)cc1)c1ccc(CO)c(Cl)c1`, the GI50 was 12.2 µM and the TGI was 30.5 µM.

As to `CC[C@](C)(O)C(=O)O[C@H]1C(=O)O[C@@H]2C[C@H]3C(C)=CC(=O)[C@@H](O)[C@]3(C)[C@H]3[C@@]4(O)OC[C@]32[C@@H]1[C@@H](C)[C@H]4O`, the GI50 was 0.0897 µM.

On to `NC(=O)[C@H]1CCN(c2ncnc(N)c2F)C[C@@H]1N1CCC[C@@H](Nc2cc(Cl)cc(C(F)(F)F)c2)C1=O`, for which the GI50 was 24.5 µM and the TGI is over 100 µM.

Take `CCN(CC)c1ccc(/C=C/c2cc(C)c3ccccc3n2)cc1`: the GI50 is 2.85 µM and the TGI stood at 87.8 µM.

For the molecule `O=C(CCl)c1ccc([N+](=O)[O-])o1`, the GI50 is 0.932 µM and the TGI came out at 2.51 µM.

In the case of `Nc1ncnc2c1ccn2C1OC2COP(=O)(O)OC2C1O` (stereo not drawn), the TGI amounted to 20.2 µM.

On to `Cc1cc(N2CCCCC2)nc(N(CCNc2ccnc3cc(Cl)ccc23)Cc2ccco2)n1`, for which the GI50 was 2.47 µM and the TGI was 8.76 µM.

As for `O=C(O)[C@@H]1C2CC([C@@H]1C(=O)O)[C@H](N1C(=O)CCC1=O)[C@@H]2Br` (stereo partly drawn), the TGI was over 100 µM.

With `CCCN1C(=O)/C(=c2\sc3n(c2=O)C2C(NN=3)N(CC)C(=O)N2CC)c2ccccc21` (stereo not drawn), the GI50 was 0.423 µM and the TGI was over 100 µM.

Regarding `c1ccc2[nH]c(-c3ccc(N4CCN(c5ccc(-c6nc7ccccc7[nH]6)cc5)CC4)cc3)nc2c1`, the GI50 was 44.6 µM and the TGI was over 100 µM.

For `CC1(C)CCC2(C(=O)OC3OC(CO)C(O)C(O)C3O)CC[C@]3(C)C(=CCC4C5(C)CC[C@H](OC6OC(C(=O)O)C(O)C(O)C6O)C(C)(C)C5CCC43C)C2C1` (stereo partly drawn), the GI50 is 23.1 µM and the TGI was over 50 µM.

With `O=S(=O)(c1ccc(NC(=S)NCc2cccnc2)cc1)N1CCCCC1`, the GI50 was 0.823 µM and the TGI is over 100 µM.

With `Fc1ccc2[nH]cc(Cc3c[nH]c4ccc(F)cc34)c2c1`, the GI50 is 16.7 µM and the TGI amounted to 64.5 µM.

For `C=C1C(=O)O[C@@H]2C1CC(=O)C(C)CC/C=C(\C)CCC[C@H](C)[C@H]2OC(C)=O` (stereo partly drawn), the GI50 is 2 µM and the TGI came out at 4.75 µM.

`Cc1ccc(C(=O)Nc2ccc(S(=O)(=O)O)c3cc(S(=O)(=O)O)cc(S(=O)(=O)O)c23)cc1NC(=O)c1cccc(N)c1` displayed a TGI of over 100 µM.

The test system of another assay is SF-539 CNS. As to the kind of experiment: NCI tumour cell line growth inhibition, 48 h.
`O=c1cc(CNc2cc(F)cc(F)c2)c2ccc(I)cc2[nH]1`: the GI50 was 0.461 µM and the TGI was over 69.9 µM.

For the molecule `CCCN(Cc1ccc(F)cc1)c1ccc(CO)c(Cl)c1`, the GI50 was 15.3 µM and the TGI turned out to be 29 µM.

As to `CC[C@](C)(O)C(=O)O[C@H]1C(=O)O[C@@H]2C[C@H]3C(C)=CC(=O)[C@@H](O)[C@]3(C)[C@H]3[C@@]4(O)OC[C@]32[C@@H]1[C@@H](C)[C@H]4O`, the GI50 is 0.0141 µM; the TGI is 0.0353 µM and 0.0895 µM.

With `NC(=O)[C@H]1CCN(c2ncnc(N)c2F)C[C@@H]1N1CCC[C@@H](Nc2cc(Cl)cc(C(F)(F)F)c2)C1=O`, the GI50 is 14.5 µM and the TGI was 33.2 µM.

Take `CCN(CC)c1ccc(/C=C/c2cc(C)c3ccccc3n2)cc1`: the GI50 is 3.2 µM and the TGI came to 9.61 µM.

Consider `O=C(CCl)c1ccc([N+](=O)[O-])o1`, for which the GI50 is 2.28 µM and the TGI was 5.03 µM.

`Nc1ncnc2c1ccn2C1OC2COP(=O)(O)OC2C1O` (stereo not drawn) had a TGI of 20.2 µM.

Turning to `Cc1cc(N2CCCCC2)nc(N(CCNc2ccnc3cc(Cl)ccc23)Cc2ccco2)n1`, the GI50 is 2.05 µM and the TGI amounted to 4.2 µM.

Turning to `O=C(O)[C@@H]1C2CC([C@@H]1C(=O)O)[C@H](N1C(=O)CCC1=O)[C@@H]2Br` (stereo partly drawn), the TGI was over 100 µM.

`CCCN1C(=O)/C(=c2\sc3n(c2=O)C2C(NN=3)N(CC)C(=O)N2CC)c2ccccc21` (stereo not drawn): the GI50 was 0.258 µM and the TGI amounted to 0.802 µM.

As to `c1ccc2[nH]c(-c3ccc(N4CCN(c5ccc(-c6nc7ccccc7[nH]6)cc5)CC4)cc3)nc2c1`, the GI50 is over 100 µM and the TGI was over 100 µM.

Consider `O=S(=O)(c1ccc(NC(=S)NCc2cccnc2)cc1)N1CCCCC1`, for which the GI50 is 0.446 µM and the TGI is over 100 µM.

Turning to `Fc1ccc2[nH]cc(Cc3c[nH]c4ccc(F)cc34)c2c1`, the GI50 was 15.7 µM and the TGI is 33.6 µM.

In the case of `C=C1C(=O)O[C@@H]2C1CC(=O)C(C)CC/C=C(\C)CCC[C@H](C)[C@H]2OC(C)=O` (stereo partly drawn), the GI50 is 18.3 µM and the TGI amounted to 34.6 µM.

The molecule `Cc1ccc(C(=O)Nc2ccc(S(=O)(=O)O)c3cc(S(=O)(=O)O)cc(S(=O)(=O)O)c23)cc1NC(=O)c1cccc(N)c1` returned a TGI of over 100 µM.
